Test results published in US20010049128A1, “PROCESS FOR THE FERMENTATIVE PRODUCTION OF L-AMINO ACIDS” (priority 1998, published 2001).
Read-outs that look alike come from different tables or passages of the source.

Key:
[1] = test system: cells in media with inhibiting osmotic stress; settings: cited from earlier work
[2] = test system: Brevibacterium flavum DSM5399; settings: Proline 0.1 g/l; 72 hours at 30° C., 300 rpm
Procedure: The solution of trace salts consisted of 1.0 g FeSO4.7H2O, 1.0 g MnSO4.H2O, 0.1 g ZnSO4.7H2O, 0.02 g CuSO4 and 0.002 g NiCl2.6H2O, which was made up to 100 ml with demineralised water and a few drops of a 1N HCl solution.
1 ml each of a 0.2 mg/l biotin and thiamine stock solution, which had been sterilised by filtration, were added to the culture medium. 10.0 g/l CaCO3 was sterilised together with the shaking flasks.
10 ml portions of cultivation medium were placed in 100 ml Erlenmeyer shaking flasks and inoculated with 100 μl of the withdrawn cell suspension. The cultivation took place over 72 hours at 30° C. and 300 rpm.

[3] = test system: Corynebacterium glutamicum DSM5715; settings: Proline 0.5 g/l; 72 hours at 33° C., 150 rpm; NaCl 5 g/l
Procedure: A culture medium containing 2.5 g/l NaCl, 10 g/l peptone and 10 g/l yeast extract was adjusted to pH 7.4 with sodium hydroxide and, after heat sterilisation, 40 ml of 50% glucose solution per liter was added thereto. 47 ml portions of the medium were inoculated with Corynebacterium glutamicum DSM5715 with a needle on an agar plate with brain-heart agar as nutrient medium incubated for 48 hours and were shaken at 150 rpm for 20 hours at 33° C. in an RC-1-TK incubator from the firm Infors AG (Bottmingen, Switzerland). The cells were then washed with sterile physiological saline. The cells were separated by centrifugation for 20 minutes at 4000 rpm in a Beckmann centrifuge J 6B.
For the main cultivation in shaking flasks, 40 g (NH4)2SO4, 0.5 g KH2PO4, 0.5 g K2HPO4, 0.25 g MgSO4.7H2O and 0.3 g L-leucine were weighed in a 1 l beaker and 750 ml distilled water was added thereto. […]
The cultivation took place over 72 hours at 33° C. and 150 rpm in an RC-1-TK incubator from the firm Infors AG (Bottmingen, Switzerland). Subsequent to this, the optical density (OD) (photometer LP2W from the firm Dr. Lange, Berlin, Germany) and the concentration of L-amino acid formed in the culture suspension were determined. Amino acids were analysed by ion-exchange chromatography and post-column reaction with ninhydrin detection, using an amino acid analyser from the firm Eppendorf BioTronik (Hamburg, Germany).

[4] = test system: Brevibacterium flavum DSM5399; settings: 72 hours at 30° C., 300 rpm
Procedure: A culture medium containing 100 g/l saccharose, 12 g/l (NH4)2SO4, 100 ml/l soya flour hydrolysate, 0.5 g/l K2HPO4, 0.5 g/l KH2PO4, 0.25 g/l MgSO4.7H2O, 5.0 g/l NaCl and 1 ml of a solution of trace salts was adjusted to pH 7.0 and autoclaved. The solution of trace salts consisted of 1.0 g FeSO4.7H2O, 1.0 g MnSO4.H2O, 0.1 g ZnSO4.7H2O, 0.02 g CuSO4 and 0.002 g NiCl2.6H2O, which was made up to 100 ml with demineralised water and a few drops of a 1N HCl solution.
1 ml each of a 0.2 mg/l biotin and thiamine stock solution, which had been sterilised by filtration, were added to the culture medium. 10.0 g/l CaCO3 was sterilised together with the shaking flasks. In the culture medium, the proline concentration resulting from the introduction of soya flour hydrolysate was 0.34 g/l. The specified concentration of proline, obtained from a proline stock solution, was added to the medium after having been sterilised by filtration.
An agar plate with brain-heart agar as nutrient medium, which had been incubated for 72 hours with DSM5399, was suspended in 10 ml of sterile physiological saline. 10 ml portions of cultivation medium were placed in 100 ml Erlenmeyer shaking flasks and inoculated with 100 μl of the withdrawn cell suspension. The cultivation took place over 72 hours at 30° C. and 300 rpm. Subsequent to this, as specified in Example 1, the OD was determined at a wavelength of 660 nm and the threonine concentration was measured.

[5] = Proline 0.34 g/l (resulting from soya flour hydrolysate, none added)

| Structure (SMILES) | growth rate of the cells [1] | production of L-lysine [1] | L-isoleucine [2] [g/L] | OD 660 nm [2] | Lysine [3] [g/L] | OD 535 nm [3] | OD 660 nm [4, 5] | Threonine [4, 5] [g/L] | OD 660 nm ([4]; Proline 0.66 g/l) | Threonine ([4]; Proline 0.66 g/l) [g/L] |
| --- | --- | --- | --- | --- | --- | --- | --- | --- | --- | --- |
| C[N+](C)(C)CC(=O)[O-] [glycine betaine] | stimulates the growth rate | increase in the production of L-lysine | – | – | – | – | – | – | – | – |
| O=C(O)[C@@H]1CCCN1 [Proline, L-proline] | – | – | 0.36 | 52.0 | 29.4 | 30.5 | 51.2 | 0.63 | 52.6 | 1.29 |
